System: Akt
Assay: Western blot of Akt phosphorylation in rat primary cortical neurons (Shank3 knock down vs control)
Format: cell-based
Conditions: for phosphorylation of Akt T308: 10 μM TG003, 60 minutes, DIV 16
Text: E18 primary rat cortical neurons were dissected, cultured and infected 6 days after plating (DIV6) with indicated lentiviruses at MOI 10, as previously described (Proenca et al., 2013). Lentiviruses were produced by calcium phosphate transfection of HEK293T cells with packaging plasmids (Life Technologies) and transfer plasmid in 10 cm dishes. Cells were transferred to fresh medium 6 hrs. post-transfection. Four days post-transfection, the cell medium was collected and pooled from several dishes, cleared of cellular debris by 0.45 μm filtration, and concentrated 100× by centrifugation at 19,000 g for 90 min in a Beckman Ultracentrifuge using a SW28/SW32 rotor. Pellets were suspended in PBS/0.5% BSA and viral titer was determined by ELISA quantification of viral p24 antigen (Zeptometrix Corp, USA). For shRNA plasmid generation, oligonucleotides were annealed and ligated into lentiviral transfer plasmid pLKO.1-GFP vector at the AgeI/EcoRI sites. The target sequences of shRNAs that target rat and mouse Shank3 (5′-3′) are: […] […] (SEQ ID NO: 2), and […] (SEQ ID NO: 3). The latter was previously reported (Verpelli et al., 2011). A luciferase-targeting sequence was used as an shRNA control: […] (SEQ ID NO: 4).
For immunoprecipitation (IP) of HA-tagged Akt, neurons were lysed in IP buffer (20 mM Tris-HCl pH 7.4, 3 mM EDTA, 3 mM EGTA, 150 mM NaCl, 0.5% NP-40, and protease/phosphatase inhibitor cocktails (Roche)). Lysates were cleared by centrifugation at 13,000 rpm for 10 min and lysates normalized for protein abundance were immunoprecipitated with rabbit HA-tag antibody for 1 h at 4° C. Immuno-complexes were then captured by incubation for an additional 1 hr with Protein A agarose beads (Roche). Beads were washed three times with IP buffer and bound proteins were eluted with 2×SDS-PAGE sample buffer, then boiled for 5 min. For IP and analysis of ubiquitinated Myc-Clk2, neurons were lysed in Ubiquitin IP buffer (20 mM Tris-HCl pH 7.4, 3 mM EDTA, 3 mM EGTA, 150 mM NaCl, 1% Triton X-100, protease/phosphatase inhibitor cocktails (Roche), 5 mM N-ethylmaleimide, and 3 mM iodoacetamide) containing 1% SDS. Lysates were boiled for 20 min to denature proteins and then centrifuged for 10 min at 13,000 rpm. Lysates were subsequently diluted to 0.1% SDS with Ubiquitin IP buffer and immunoprecipitated with Myc antibody for 1 h. Complexes were then captured by addition of Protein G agarose (Roche) and additional 1 h incubation. Beads were washed 3× and eluted with 2×SDS-PAGE sample buffer, then boiled for 5 min. Samples prepared for SDS-PAGE were then resolved on 4-12% Novex gels (Life Technologies), transferred to PVDF membranes, blocked in 5% low-fat milk in TBS/0.1% Tween-20, and incubated overnight with primary antibodies. After washing and 1 h incubation with secondary antibodies, proteins were visualized by Chemiluminescent detection (Amersham-GE Healthcare Life Sciences).
To determine whether Shank3 deficiency impacts the PI3K-Akt-mTOR signaling pathway (FIG. 1A, gray highlight), lentiviral-mediated delivery of shRNAs was used to knock-down Shank3 in rat primary cortical neuron cultures. Cultured rat primary cortical neurons were transduced with lentiviruses encoding control shRNA or Shank3-shRNA at six days in vitro (DIV 6) and treated with BDNF (50 ng/ml) for 15 or 30 min at 14-16 days in vitro (DIV 14-16). Cell lysates were prepared in RIPA buffer prior to resolution by SDS-PAGE and Western blotting.
Cortical neurons, transduced with shRNA-expressing lentiviruses on DIV 6, were treated with 50 ng/ml BDNF or okadaic acid (100 nM) on DIV 16 and cell lysates were resolved by SDS-PAGE, followed by Western blotting.

Compound	Akt phosphorylation (Shank3 knock down primary neurons, SC79 treatment)	phosphorylation of Akt T308 (Shank3 knock down neurons)	phosphorylation of Akt T308 (control neurons)
CCOC(=O)C1=C(N)Oc2ccc(Cl)cc2C1C(C#N)C(=O)OCC (stereo not drawn) [SC79]	restored Akt and rpS6 phosphorylation	–	–
CCN1/C(=C/C(C)=O)Sc2ccc(OC)cc21 [TG003, (Z)-1-(3-ethyl-5-methoxy-2,3-dihydrobenzothiazol-2-ylidene)propan-2-one]	–	restored to control levels in Shank3 knock down neurons	refractory to TG003

From patent US20180296537A1, “METHODS AND COMPOSITIONS FOR DIAGNOSING, TREATING, AND MONITORING TREATMENT OF SHANK3 DEFICIENCY ASSOCIATED DISORDERS” (Novartis AG, priority 2015, published 2018)
